Patent USRE48335E1, “Polymyxin derivatives as antimicrobial compounds” (priority 2014, dated 2020)
Values after ≈ are worked out from the molar mass of the structure shown. Where two headings read alike, the source gives them in different places. Positions of bridges follow the written chain, without caps; N, C: chain ends. Non-standard residues stand in square brackets, D forms with d. Residues, ends and D or L forms follow the SMILES beside them. *: point of attachment. Benzoyl(3-Ph) = O=C(c1cccc(-c2ccccc2)c1)*; X17 = Cc1cc(C(=O)*)cc(C(F)(F)F)c1; X13 = O=C(Cc1ccc(Cl)cc1Cl)*; Nonanoyl = CCCCCCCCC(=O)*; X14 = Cc1ccc(C(=O)*)cc1C; Dab = NCC[C@H](N)C(=O)O; Abu = CC[C@H](N)C(=O)O; Dap = NC[C@H](N)C(=O)O

Key:
P. aeruginosa ATCC 27853 = assay: In vivo efficacy in mouse blood infection model (neutropenic Swiss mice); conditions: compound, free base 4 mg/kg intravenously 2 h after inoculation, blood at 4 h
Experimental: P. aeruginosa ATCC 27853, A. baumannii ATCC 19606 and K. pneumoniae FADDI-KP032 were subcultured on nutrient agar plates. One colony of each bacterial strain was dispersed in 10-mL CAMHB and incubated overnight. On day 2, an aliquot (0.2 mL) of each overnight culture suspension was dispersed in 20-mL CAMHB and incubated for 1.5-2.5 h for production of early log-phase growth bacterial culture. The bacteria in the early log-phase growth suspension were concentrated by centrifugation (3,220 g for 10 min) and re-suspended in sterile 0.9% saline for inoculation into mice. The bacterial cell concentration (colony forming unit [CFU]/mL) in saline was estimated by determining the optical density (OD) of the suspension at 600 nm, and confirmed by plating the suspension on nutrient agar plates. Swiss mice (22 to 28 g) were rendered neutropenic by injecting two doses of cyclophosphamide intraperitoneally, −4 day (150 mg/kg) and −1 day (100 mg/kg) prior to inoculation. Bloodstream infection was established by injecting intravenously 50 μL of early log-phase bacterial suspension (10^8-10^9 CFU/mL). The exact injection volume for each bacterial suspension was calculated based upon the OD value of the bacterial suspension and the desired inoculum for each isolate.
Solutions for administration of colistin, polymyxin B or the compounds were prepared at a concentration of 1 mg (free base) per mL in sterile 0.9% saline. At 2 h after inoculation, a mouse in the treatment groups was injected intravenously with one of the above solutions at 4 μL/g body weight (BW) (i.e. free base 4 mg/kg BW), while the same volume of saline was injected into the control mice. At 0 h or at 4 h after the administration of antibacterial drug or saline (control), animals were euthanised by inhalation of overdose isoflurane. The skin on the chest and fore-paws of each animal was thoroughly cleansed with 70% ethanol and Betadine®. The blood was collected via cardiac puncture using a 1-mL syringe rinsed with heparin (5,000 IU/mL), diluted serially in sterile 0.9% saline and plated on nutrient agar plates using a spiral plater.
The agar plates were incubated at 37° C. overnight. The bacterial colonies on the plate were counted and CFU/mL of the blood was calculated. The log10 CFU/mL of blood in each mouse was calculated. The in vivo activity of the compounds against the bacteria was calculated as the difference of the log10 CFU/mL values between the treated mice and the control mice at 4 h (Δ log=log10 (treated)CFU/mL−log10 (control)CFU/mL).
Any compound showing a decrease in bacterial loading (Δ log) of ≥2 at 4 h is considered to have good in vivo efficacy in this initial screening model.

Klebsiella pneumoniae = tested on: Klebsiella pneumoniae
In short: (§1)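 Using polymyxin B sulphate as comparator control, the trifluoroacetate-salt lipopeptides were assayed in CAMHB by broth microdilution to CLSI M100-S18, and MICs recorded.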

Enterobacter cloacae = tested on: Enterobacter cloacae
In short: as §1

Pseudomonas aeruginosa = tested on: Pseudomonas aeruginosa
In short: as §1

Acinetobacter baumannii = tested on: Acinetobacter baumannii
In short: as §1

Compound	Δ log (Treated-Control at 4 h) (P. aeruginosa ATCC 27853)	MIC (Klebsiella pneumoniae)	Minimum inhibitory concentration, Ec FADDI-EC001 (Enterobacter cloacae)	Minimum inhibitory concentration, Ec FADDI-EC003 (Enterobacter cloacae)	Minimum inhibitory concentration, Ec FADDI-EC006 (Enterobacter cloacae)	MIC (Pseudomonas aeruginosa)	Minimum inhibitory concentration, Pa ATCC 27853 (Pseudomonas aeruginosa)	Minimum inhibitory concentration, Pa FADDI-PA022 (Pseudomonas aeruginosa)	Minimum inhibitory concentration, Pa FADDI-PA025 (Pseudomonas aeruginosa)	MIC (Acinetobacter baumannii)	Minimum inhibitory concentration, Ab A ATCC 17978 (Acinetobacter baumannii)	Minimum inhibitory concentration, Ab ATCC 19606 (Acinetobacter baumannii)	Minimum inhibitory concentration, Ab FADDI-AB034 (Acinetobacter baumannii)	also measured
CC[C@@H]1NC(=O)[C@@H](CC(C)C)NC(=O)[C@H](CCN)NC(=O)[C@@H](NC(=O)[C@H](CN)NC(=O)[C@@H](NC(=O)[C@H](CCN)NC(=O)c2cccc(-c3ccccc3)c2)[C@@H](C)O)CCNC(=O)[C@H]([C@@H](C)O)NC(=O)[C@H](CCN)NC(=O)[C@H](CCN)NC1=O [Compound 138] ({Benzoyl(3-Ph)}-[Dab]T[Dap][Dab][Dab][dL][Abu][Dab][Dab]T; lactam 4-C)	−2.98 log10 CFU/mL													MIC (Klebsiella pneumoniae; K. pneumoniae FADDI-KP032): 0.5 µg/mL (≈ 0.428 µM); Minimum inhibitory concentration (MIC), Ec FADDI-EC001 (Enterobacter cloacae; Enterobacter cloacae FADDI-EC001, broth microdilution in CAMHB, TFA salt): 0.5 µg/mL; Minimum inhibitory concentration (MIC), Ec FADDI-EC003 (Enterobacter cloacae; Enterobacter cloacae FADDI-EC003, broth microdilution in CAMHB, TFA salt): 1 µg/mL; Minimum inhibitory concentration (MIC), Ec FADDI-EC006 (Enterobacter cloacae; Enterobacter cloacae FADDI-EC006, broth microdilution in CAMHB, TFA salt): 0.5 µg/mL; MIC (Pseudomonas aeruginosa; P. aeruginosa ATCC 27853): 1 µg/mL (≈ 0.857 µM); Minimum inhibitory concentration (MIC), Pa ATCC 27853 (Pseudomonas aeruginosa; Pseudomonas aeruginosa ATCC 27853, broth microdilution in CAMHB, TFA salt): 1 µg/mL; Minimum inhibitory concentration (MIC), Pa FADDI-PA022 (Pseudomonas aeruginosa; Pseudomonas aeruginosa FADDI-PA022, broth microdilution in CAMHB, TFA salt): 2 µg/mL; Minimum inhibitory concentration (MIC), Pa FADDI-PA025 (Pseudomonas aeruginosa; Pseudomonas aeruginosa FADDI-PA025, broth microdilution in CAMHB, TFA salt): 1 µg/mL; MIC (Acinetobacter baumannii; A. baumannii ATCC 19606): 1 µg/mL (≈ 0.857 µM); Minimum inhibitory concentration (MIC), Ab ATCC 17978 (Acinetobacter baumannii; Acinetobacter baumannii ATCC 17978, broth microdilution in CAMHB, TFA salt): 0.5 µg/mL; Minimum inhibitory concentration (MIC), Ab ATCC 19606 (Acinetobacter baumannii; Acinetobacter baumannii ATCC 19606, broth microdilution in CAMHB, TFA salt): 1 µg/mL; Minimum inhibitory concentration (MIC), Ab FADDI-AB034 (Acinetobacter baumannii; Acinetobacter baumannii FADDI-AB034, broth microdilution in CAMHB, TFA salt): 0.5 µg/mL
CC[C@@H]1NC(=O)[C@@H](CC(C)C)NC(=O)[C@H](CCN)NC(=O)[C@@H](NC(=O)[C@H](CN)NC(=O)[C@@H](NC(=O)[C@H](CCN)NC(=O)Cc2ccc(Cl)cc2Cl)[C@@H](C)O)CCNC(=O)[C@H]([C@@H](C)O)NC(=O)[C@H](CCN)NC(=O)[C@H](CCN)NC1=O [Compound 70] (X13-[Dab]T[Dap][Dab][Dab][dL][Abu][Dab][Dab]T; lactam 4-C)	−3.11 log10 CFU/mL	0.25 µg/mL (≈ 0.213 µM)	0.5 µg/mL (≈ 0.426 µM)	0.25 µg/mL (≈ 0.213 µM)	0.5 µg/mL (≈ 0.426 µM)	1 µg/mL (≈ 0.852 µM)	1 µg/mL (≈ 0.852 µM)	1 µg/mL (≈ 0.852 µM)	2 µg/mL (≈ 1.7 µM)	0.5 µg/mL (≈ 0.426 µM)	0.5 µg/mL (≈ 0.426 µM)	0.5 µg/mL (≈ 0.426 µM)	1 µg/mL (≈ 0.852 µM)	
CCCCCCCCC(=O)N[C@@H](CCN)C(=O)N[C@H](C(=O)N[C@@H](CN)C(=O)N[C@H]1CCNC(=O)[C@H]([C@@H](C)O)NC(=O)[C@H](CCN)NC(=O)[C@H](CCN)NC(=O)[C@H](CO)NC(=O)[C@@H](Cc2ccccc2)NC(=O)[C@H](CCN)NC1=O)[C@@H](C)O [Compound 143] (Nonanoyl-[Dab]T[Dap][Dab][Dab][dF]S[Dab][Dab]T; lactam 4-C)	−3.47 log10 CFU/mL	0.25 µg/mL (≈ 0.215 µM)				0.5 µg/mL (≈ 0.43 µM)				1 µg/mL (≈ 0.86 µM)				Minimum inhibitory concentration (MIC), Ec FADDI-EC001 (Enterobacter cloacae): 1 µg/mL (≈ 0.86 µM); Minimum inhibitory concentration (MIC), Ec FADDI-EC003 (Enterobacter cloacae): 0.5 µg/mL (≈ 0.43 µM); Minimum inhibitory concentration (MIC), Ec FADDI-EC006 (Enterobacter cloacae): 0.5 µg/mL (≈ 0.43 µM); Minimum inhibitory concentration (MIC), Pa ATCC 27853 (Pseudomonas aeruginosa): 0.5 µg/mL (≈ 0.43 µM); Minimum inhibitory concentration (MIC), Pa FADDI-PA022 (Pseudomonas aeruginosa): 0.5 µg/mL (≈ 0.43 µM); Minimum inhibitory concentration (MIC), Pa FADDI-PA025 (Pseudomonas aeruginosa): 16 µg/mL (≈ 13.8 µM); Minimum inhibitory concentration (MIC), Ab ATCC 17978 (Acinetobacter baumannii): 1 µg/mL (≈ 0.86 µM); Minimum inhibitory concentration (MIC), Ab ATCC 19606 (Acinetobacter baumannii): 1 µg/mL (≈ 0.86 µM); Minimum inhibitory concentration (MIC), Ab FADDI-AB034 (Acinetobacter baumannii): 0.5 µg/mL (≈ 0.43 µM)
CC(C)C[C@H]1NC(=O)[C@H](CCN)NC(=O)[C@@H](NC(=O)[C@H](CN)NC(=O)[C@@H](NC(=O)[C@H](CCN)NC(=O)Cc2ccc(Cl)cc2Cl)[C@@H](C)O)CCNC(=O)[C@H]([C@@H](C)O)NC(=O)[C@H](CCN)NC(=O)[C@H](CCN)NC(=O)[C@H]([C@@H](C)O)NC1=O [Compound 62] (X13-[Dab]T[Dap][Dab][Dab][dL]T[Dab][Dab]T; lactam 4-C)	−2.69 log10 CFU/mL	0.25 µg/mL (≈ 0.21 µM)	<0.125 µg/mL	<0.125 µg/mL	0.25 µg/mL (≈ 0.21 µM)	0.5 µg/mL (≈ 0.42 µM)	0.5 µg/mL (≈ 0.42 µM)	1 µg/mL (≈ 0.84 µM)	1 µg/mL (≈ 0.84 µM)	2 µg/mL (≈ 1.68 µM)	1 µg/mL (≈ 0.84 µM)	2 µg/mL (≈ 1.68 µM)	1 µg/mL (≈ 0.84 µM)	
CC[C@@H]1NC(=O)[C@@H](CC(C)C)NC(=O)[C@H](CCN)NC(=O)[C@@H](NC(=O)[C@H](CN)NC(=O)[C@@H](NC(=O)[C@H](CCN)NC(=O)c2ccc(C)c(C)c2)[C@@H](C)O)CCNC(=O)[C@H]([C@@H](C)O)NC(=O)[C@H](CCN)NC(=O)[C@H](CCN)NC1=O [Compound 83] (X14-[Dab]T[Dap][Dab][Dab][dL][Abu][Dab][Dab]T; lactam 4-C)	−3.63 log10 CFU/mL	0.25 µg/mL (≈ 0.223 µM)	0.25 µg/mL (≈ 0.223 µM)	0.25 µg/mL (≈ 0.223 µM)	0.25 µg/mL (≈ 0.223 µM)	1 µg/mL (≈ 0.893 µM)	1 µg/mL (≈ 0.893 µM)	1 µg/mL (≈ 0.893 µM)	2 µg/mL (≈ 1.79 µM)	2 µg/mL (≈ 1.79 µM)	1 µg/mL (≈ 0.893 µM)	2 µg/mL (≈ 1.79 µM)	0.5 µg/mL (≈ 0.447 µM)	
CC[C@@H]1NC(=O)[C@@H](CC(C)C)NC(=O)[C@H](CCN)NC(=O)[C@@H](NC(=O)[C@H](CN)NC(=O)[C@@H](NC(=O)[C@H](CCN)NC(=O)c2cc(C)cc(C(F)(F)F)c2)[C@@H](C)O)CCNC(=O)[C@H]([C@@H](C)O)NC(=O)[C@H](CCN)NC(=O)[C@H](CCN)NC1=O [Compound 120] (X17-[Dab]T[Dap][Dab][Dab][dL][Abu][Dab][Dab]T; lactam 4-C)	−3.20 log10 CFU/mL	0.5 µg/mL (≈ 0.426 µM)	0.25 µg/mL (≈ 0.213 µM)	0.25 µg/mL (≈ 0.213 µM)	0.25 µg/mL (≈ 0.213 µM)	1 µg/mL (≈ 0.852 µM)	1 µg/mL (≈ 0.852 µM)	1 µg/mL (≈ 0.852 µM)	2 µg/mL (≈ 1.7 µM)	1 µg/mL (≈ 0.852 µM)	0.5 µg/mL (≈ 0.426 µM)	1 µg/mL (≈ 0.852 µM)	0.5 µg/mL (≈ 0.426 µM)	
